Structures can show the parent of a compound that is named as a salt.
How the values were obtained:
D2 receptors = molecular target: T1, D2 receptors (Homo sapiens, UniProt P14416); test: D2 receptor binding assay (3H-YM 09151-2 displacement)
T1 construct: expressed in transfected cells; host or cells: COS cells
Procedure: (§1) Pellets of COS cells containing recombinantly produced D2 or D4 receptors from human are used for the assays. The sample is homogenized in 100 volumes (w/vol) of 0.05 M Tris HCl buffer at 4° C. and pH 7.4. The sample is then centrifuged at 30,000×g and resuspended and rehomogenized. The sample is then centrifuged as described above and the final tissue sample is frozen until use. The tissue is resuspended 1:20 (wt/vol) in 0.05 M Tris HCl buffer containing 100 mM NaCl.
(§2) Incubations are carried out at […]. and contain 0.4 ml of tissue sample, 0.5 nM 3H-YM 09151-2 and the compound of interest in a total incubation mixture of 1.0 ml. Nonspecific binding is defined as that binding found in the presence of 1 mM spiperone; without further additions, nonspecific binding is less than 20% of total binding. Representative binding characteristics for compounds of the invention for the D2 and D4 receptor subtypes are shown in Table 2 for cloned human dopamine receptors. Typically, the compounds of the invention have similar binding profiles.

D4 receptors = molecular target: T2, D4 receptors (Homo sapiens, UniProt P21917); test: D4 receptor binding assay (3H-YM 09151-2 displacement)
T2 construct: expressed in transfected cells; host or cells: COS cells
T2 sequence (P21917 1-419): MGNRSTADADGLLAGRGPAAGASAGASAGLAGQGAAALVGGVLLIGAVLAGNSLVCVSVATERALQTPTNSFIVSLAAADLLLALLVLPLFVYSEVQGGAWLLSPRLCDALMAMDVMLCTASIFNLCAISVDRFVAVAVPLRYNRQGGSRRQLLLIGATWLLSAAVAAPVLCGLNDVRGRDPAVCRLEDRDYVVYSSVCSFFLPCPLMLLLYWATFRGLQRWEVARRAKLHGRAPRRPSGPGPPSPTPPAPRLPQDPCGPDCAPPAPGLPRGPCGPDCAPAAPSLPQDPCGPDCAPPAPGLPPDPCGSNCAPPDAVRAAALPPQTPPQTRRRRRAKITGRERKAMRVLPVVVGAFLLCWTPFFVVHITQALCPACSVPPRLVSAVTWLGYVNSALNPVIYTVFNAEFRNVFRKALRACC
Procedure: as §1, §2

T1 sequence (P14416 whole entry): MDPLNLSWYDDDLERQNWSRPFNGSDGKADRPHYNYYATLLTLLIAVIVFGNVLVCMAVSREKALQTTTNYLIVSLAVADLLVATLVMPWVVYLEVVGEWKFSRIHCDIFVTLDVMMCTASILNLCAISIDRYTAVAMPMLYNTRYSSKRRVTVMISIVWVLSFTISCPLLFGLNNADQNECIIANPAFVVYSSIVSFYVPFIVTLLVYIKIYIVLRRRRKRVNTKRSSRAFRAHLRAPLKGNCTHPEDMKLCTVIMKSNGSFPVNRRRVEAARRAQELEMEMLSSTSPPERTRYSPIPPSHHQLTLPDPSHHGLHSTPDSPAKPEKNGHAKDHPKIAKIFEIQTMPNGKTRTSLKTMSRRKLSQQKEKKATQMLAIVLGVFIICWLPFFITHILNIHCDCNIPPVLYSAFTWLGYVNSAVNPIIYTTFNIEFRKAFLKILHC

| Structure (SMILES) | melting point | Ki (D2 receptors) | Ki (D4 receptors) |
| --- | --- | --- | --- |
| Br.Br.Clc1ccc(CN2CCN(c3cccc(Cl)c3)CC2)cc1 | 238 to 240 °C | – | – |
| Clc1ccc(CN2CCN(c3ccccc3Cl)CC2)cc1.O=C(O)C(=O)O.O=C(O)C(=O)O | 203 to 204 °C | – | – |
| Clc1ccc(CN2CCN(c3ccc(Cl)c(Cl)c3)CC2)cc1 | 82 to 83 °C | – | – |
| Cc1ccc(N2CCN(Cc3ccc(Cl)cc3)CC2)cc1.O=C(O)C(=O)O.O=C(O)C(=O)O | 204 to 206 °C | – | – |
| Cc1cccc(N2CCN(Cc3ccc(Cl)cc3)CC2)c1.O=C(O)C(=O)O.O=C(O)C(=O)O | 233 to 235 °C | – | – |
| Cc1ccccc1N1CCN(Cc2ccc(Cl)cc2)CC1.O=C(O)C(=O)O.O=C(O)C(=O)O | 205 to 206 °C | – | – |
| COc1ccccc1N1CCN(Cc2ccc(Cl)cc2)CC1.O=C(O)C(=O)O.O=C(O)C(=O)O | 217 to 220 °C | – | – |
| CCOc1ccc(N2CCN(Cc3ccc(Cl)cc3)CC2)cc1.Cl.Cl | 235 to 237 °C | – | – |
| Br.Br.CCOc1ccccc1N1CCN(Cc2ccc(Cl)cc2)CC1 | 215 to 217 °C | – | – |
| Clc1ccc(CN2CCN(c3ccccc3)CC2)cc1.O=C(O)C(=O)O.O=C(O)C(=O)O | 228 to 231 °C | – | – |
| Cc1ccc(CN2CCN(c3cccc(Cl)c3)CC2)cc1.O=C(O)C(=O)O.O=C(O)C(=O)O | 199 to 200 °C | – | – |
| Cc1ccc(N2CCN(Cc3ccc(Cl)cc3)CC2)cc1C (as salt: hydrochloride) [Compound 2, 1-(3,4-dimethylphenyl)-4-(4-chlorobenzyl)piperazine dihydrochloride] | 225 to 228 °C | – | – |
| COc1ccc(N2CCN(Cc3ccc(Cl)cc3)CC2)cc1 (as salt: oxalate) [Compound 3, 1-(4-methoxyphenyl)-4-(4-chlorobenzyl)piperazine dioxalate] | 211 to 212 °C | – | – |
| Clc1ccc(CN2CCN(c3ccc(Cl)cc3)CC2)cc1 [Compound 1, 1-(4-Chlorophenyl)-4-(4-chlorobenlzyl)piperazine Dihydrochloride] | – | > 1 µM | 0.005 µM |
| Cc1ccc(N2CCN(Cc3ccc(Cl)cc3)CC2)cc1C [Compound 2, 1-(3,4-dimethylphenyl)-4-(4-chlorobenzyl)piperazine dihydrochloride] | – | > 0.6 µM | 0.016 µM |
| COc1ccc(N2CCN(Cc3ccc(Cl)cc3)CC2)cc1 [Compound 3, 1-(4-methoxyphenyl)-4-(4-chlorobenzyl)piperazine dioxalate] | – | > 1 µM | 0.005 µM |
| Cc1ccc(CN2CCN(c3ccc(Cl)cc3)CC2)cc1 [Compound 4, 1-(4-chlorophenyl)-4-(4-methylbenzyl)piperazine dihydrobromide] | – | > 0.3 µM | 0.015 µM |
